Reference: article doi:10.1101/2025.11.21.689733v1, “Identification and Characterization of a Small Molecule Ligand for the Huntingtin-HAP40 Complex” (biorxiv, 2025)
Values belong to the compound of their own block, whether it stands above or below them.

Key:
Format in all cases: binding
HTTQ54-HAP40 = target: T1, HTTQ54-HAP40 (Homo sapiens, UniProt P23610+P42858, P42858:INS38QQQQQQQQQQQQQQQQQQQQQQQQQQQQQQQQQ); test: SPR
T1 construct: gene HTT; full-length HTT with polyQ tract of 54 residues in complex with HAP40; C-terminal Avi-tag biotinylated; Sf9 baculovirus
Excerpt: SPR on HTTQ54-HAP40 | binding affinity was indistinguishable between wild-type (Q23) HTT-HAP40 and its expanded form (Q54)

HTTQ23-HAP40 (HTT-HAP40) [1] = target: T2, HTTQ23-HAP40 (HTT-HAP40) (Homo sapiens, UniProt P23610+P42858, P42858:INS38QQ); test: SPR, steady state, […] model; settings: read-out: apparent KD
T2 construct: full-length HTT (3144 aa, polyQ tract Q23) co-complex with HAP40, ~390 kDa; C-terminal Avi-tag biotinylated (BirA) for SPR; Sf9 baculovirus
T2 sequence (P42858 with tags, fused parts or gaps INS38QQ): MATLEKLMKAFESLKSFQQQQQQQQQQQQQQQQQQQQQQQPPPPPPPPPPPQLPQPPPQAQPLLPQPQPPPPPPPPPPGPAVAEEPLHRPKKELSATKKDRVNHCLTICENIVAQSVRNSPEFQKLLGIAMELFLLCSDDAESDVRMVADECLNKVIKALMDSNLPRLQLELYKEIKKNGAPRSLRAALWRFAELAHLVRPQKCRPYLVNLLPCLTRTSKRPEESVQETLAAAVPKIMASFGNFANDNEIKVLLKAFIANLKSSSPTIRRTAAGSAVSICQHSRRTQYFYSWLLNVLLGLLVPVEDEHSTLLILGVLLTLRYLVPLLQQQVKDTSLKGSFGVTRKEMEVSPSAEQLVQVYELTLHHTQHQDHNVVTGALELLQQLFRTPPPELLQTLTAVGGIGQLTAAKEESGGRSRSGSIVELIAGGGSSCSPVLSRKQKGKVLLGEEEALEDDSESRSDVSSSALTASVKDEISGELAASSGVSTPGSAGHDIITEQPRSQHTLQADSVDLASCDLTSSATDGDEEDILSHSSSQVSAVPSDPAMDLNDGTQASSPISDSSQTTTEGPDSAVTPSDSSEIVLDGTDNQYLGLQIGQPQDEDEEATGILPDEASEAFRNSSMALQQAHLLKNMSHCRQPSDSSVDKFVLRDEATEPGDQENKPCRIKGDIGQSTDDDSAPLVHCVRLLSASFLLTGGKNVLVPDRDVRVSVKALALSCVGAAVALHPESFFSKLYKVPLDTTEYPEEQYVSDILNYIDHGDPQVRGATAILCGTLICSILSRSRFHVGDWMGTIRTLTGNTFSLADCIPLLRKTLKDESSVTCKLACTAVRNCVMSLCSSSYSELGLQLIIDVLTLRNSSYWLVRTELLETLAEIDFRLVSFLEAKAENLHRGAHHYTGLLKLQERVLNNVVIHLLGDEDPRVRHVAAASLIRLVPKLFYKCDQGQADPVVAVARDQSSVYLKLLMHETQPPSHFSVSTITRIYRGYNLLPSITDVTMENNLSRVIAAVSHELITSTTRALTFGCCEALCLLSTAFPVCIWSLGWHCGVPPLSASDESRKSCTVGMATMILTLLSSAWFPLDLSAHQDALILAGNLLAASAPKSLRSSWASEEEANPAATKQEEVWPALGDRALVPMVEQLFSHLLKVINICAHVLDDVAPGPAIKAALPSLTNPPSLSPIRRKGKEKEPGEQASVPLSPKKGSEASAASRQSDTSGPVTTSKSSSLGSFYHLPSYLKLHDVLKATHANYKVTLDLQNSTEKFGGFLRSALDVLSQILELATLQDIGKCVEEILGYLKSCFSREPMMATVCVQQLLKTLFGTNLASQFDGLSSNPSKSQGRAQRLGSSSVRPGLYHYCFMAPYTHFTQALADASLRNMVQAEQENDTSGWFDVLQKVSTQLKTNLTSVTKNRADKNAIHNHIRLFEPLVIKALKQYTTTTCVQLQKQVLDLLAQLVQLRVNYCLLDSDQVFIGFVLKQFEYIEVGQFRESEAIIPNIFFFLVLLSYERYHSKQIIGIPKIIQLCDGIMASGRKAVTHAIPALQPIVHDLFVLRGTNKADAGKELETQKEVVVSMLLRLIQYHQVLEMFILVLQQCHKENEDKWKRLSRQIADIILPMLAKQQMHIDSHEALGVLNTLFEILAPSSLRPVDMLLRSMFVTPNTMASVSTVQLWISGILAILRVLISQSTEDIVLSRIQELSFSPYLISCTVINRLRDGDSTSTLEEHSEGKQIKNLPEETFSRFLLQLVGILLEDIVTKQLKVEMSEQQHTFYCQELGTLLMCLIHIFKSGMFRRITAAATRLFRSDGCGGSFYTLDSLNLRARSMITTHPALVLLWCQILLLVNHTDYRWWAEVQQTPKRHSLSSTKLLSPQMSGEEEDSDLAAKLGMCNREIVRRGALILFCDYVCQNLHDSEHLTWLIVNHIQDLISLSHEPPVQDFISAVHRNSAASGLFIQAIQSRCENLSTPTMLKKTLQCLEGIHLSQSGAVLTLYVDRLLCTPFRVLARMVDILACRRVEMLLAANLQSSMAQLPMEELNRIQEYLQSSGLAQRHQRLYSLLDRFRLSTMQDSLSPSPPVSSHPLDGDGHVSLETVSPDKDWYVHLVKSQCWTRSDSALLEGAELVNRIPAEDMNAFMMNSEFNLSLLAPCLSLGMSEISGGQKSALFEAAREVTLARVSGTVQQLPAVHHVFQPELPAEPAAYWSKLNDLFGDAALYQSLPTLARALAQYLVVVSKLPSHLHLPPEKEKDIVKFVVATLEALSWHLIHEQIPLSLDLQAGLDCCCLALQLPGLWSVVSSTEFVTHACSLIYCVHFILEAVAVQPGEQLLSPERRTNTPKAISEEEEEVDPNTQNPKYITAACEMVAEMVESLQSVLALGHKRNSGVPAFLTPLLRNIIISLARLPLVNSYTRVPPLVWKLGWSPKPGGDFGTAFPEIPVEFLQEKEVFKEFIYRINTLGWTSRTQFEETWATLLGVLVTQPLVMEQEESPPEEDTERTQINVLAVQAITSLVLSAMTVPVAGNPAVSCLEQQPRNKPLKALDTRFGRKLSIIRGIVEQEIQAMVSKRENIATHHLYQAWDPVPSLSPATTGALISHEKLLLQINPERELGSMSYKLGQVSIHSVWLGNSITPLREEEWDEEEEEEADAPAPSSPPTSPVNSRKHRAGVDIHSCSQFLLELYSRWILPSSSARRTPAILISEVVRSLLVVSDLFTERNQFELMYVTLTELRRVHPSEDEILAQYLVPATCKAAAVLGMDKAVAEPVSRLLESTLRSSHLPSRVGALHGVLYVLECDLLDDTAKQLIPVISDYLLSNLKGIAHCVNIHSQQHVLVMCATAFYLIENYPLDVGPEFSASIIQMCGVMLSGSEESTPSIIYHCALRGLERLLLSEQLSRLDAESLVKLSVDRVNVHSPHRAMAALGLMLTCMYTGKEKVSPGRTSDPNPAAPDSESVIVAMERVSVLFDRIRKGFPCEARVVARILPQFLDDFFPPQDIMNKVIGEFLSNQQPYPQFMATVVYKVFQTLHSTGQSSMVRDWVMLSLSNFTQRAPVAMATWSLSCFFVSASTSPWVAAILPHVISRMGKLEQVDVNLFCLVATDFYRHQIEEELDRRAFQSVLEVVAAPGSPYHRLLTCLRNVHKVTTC
T2 sequence (P23610 whole entry, stated change not applied): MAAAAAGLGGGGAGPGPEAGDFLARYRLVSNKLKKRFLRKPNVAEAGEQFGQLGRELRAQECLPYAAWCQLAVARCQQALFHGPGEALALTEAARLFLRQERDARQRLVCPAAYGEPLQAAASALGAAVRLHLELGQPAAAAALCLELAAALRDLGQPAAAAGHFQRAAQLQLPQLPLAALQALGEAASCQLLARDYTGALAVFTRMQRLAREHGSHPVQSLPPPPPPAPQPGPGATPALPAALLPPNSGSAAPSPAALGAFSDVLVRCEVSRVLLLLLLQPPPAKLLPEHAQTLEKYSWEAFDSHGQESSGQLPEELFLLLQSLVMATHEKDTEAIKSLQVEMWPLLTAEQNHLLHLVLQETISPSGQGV

HTTQ23-HAP40 (HTT-HAP40) [2] = target: T2, HTTQ23-HAP40 (HTT-HAP40); test: SPR, […] model
HTTQ23-HAP40 (HTT-HAP40) [3] = target: T2, HTTQ23-HAP40 (HTT-HAP40); test: SPR, […] model; settings: pH 7.4, 150 mM NaCl, 4% DMSO

Kd (HTTQ54-HAP40): 4 ± 1 µM
Kd (HTTQ23-HAP40 (HTT-HAP40) [1]): 5 ± 2 µM
Compound: Cn1ncc2ccc(CNc3ccccc3C3CC3(F)F)cc21 (racemic) [compound 1, AS-MS Hit 1]

Kd (HTTQ23-HAP40 (HTT-HAP40) [1]): 4 ± 2 µM
Compound: Cn1ncc2ccc(CNc3ccccc3[C@H]3CC3(F)F)cc21 (single isomer, unassigned; peak 2) [compound 1, Peak 2 of AS-MS Hit 1]

Kd (HTTQ23-HAP40 (HTT-HAP40) [2]): 3.5 ± 1 µM
Compound: Cn1ncc2ccc(CNc3ccccc3C3CC(F)(F)C3)cc21 [compound 3, 3]

Compound: Cc1nn(C)c2cc(CNc3ccccc3C3CCC(F)(F)C3)ccc12 (centres unmarked) [compound 21, 21]
KD (HTTQ23-HAP40 (HTT-HAP40) [3]): These modifications were well-tolerated but did not improve affinity
